Earlier results in patent publication US10226441B2, “Aging inhibitor” (NIHON SIZEN HAKKOH CO., LTD., priority 2014, dated 2019).

Tested on: mice of the same species (SAM-P1, male)

Row | Structure (SMILES) | Average survival, Age in weeks (Non-Patent Literature 14) [weeks] | Average survival (Days) (Non-Patent Literature 14) | Average survival (Non-Patent Literature 14, listed as reduced CoQ10) [days]
1 | COC1=C(OC)C(=O)C(C/C=C(\C)CC/C=C(\C)CC/C=C(\C)CC/C=C(\C)CC/C=C(\C)CC/C=C(\C)CC/C=C(\C)CC/C=C(\C)CC/C=C(\C)CCC=C(C)C)=C(C)C1=O [CoQ10, coenzyme Q10] | 73.98 |  | 
2 | COc1c(O)c(C)c(C/C=C(\C)CC/C=C(\C)CC/C=C(\C)CC/C=C(\C)CC/C=C(\C)CC/C=C(\C)CC/C=C(\C)CC/C=C(\C)CC/C=C(\C)CCC=C(C)C)c(O)c1OC [CoQ10H2] | 74.234 | (519.64 ± 79.53) days | 519.64
